How the values were obtained:
[1] = tested on: SK-N-LP CaSR/GFP; assay: RT-qPCR mRNA expression in SK-N-LP CaSR/GFP neuroblastoma cells grown with Cinacalcet; type: cell-based, Homo sapiens; details: 1 μM Cinacalcet vs DMSO, up to 21 days
Procedure: (§1) Three neuroblastoma cell lines LA-N-1, SK-N-LP and SH-SY5Y were used for this purpose. […] No expression of the CaSR is detectable in SH-SY5Y either. Thus, SK-N-LP and SH-SY5Y were stably transfected with pCMV-CaSR-GFP or pCMV-GFP. All cell lines were grown in the presence of 1 μM Cinacalcet (Selleck Chemicals, S1260) or DMSO for 21 days in P100 plates. Morphology was assessed daily. Total RNA was isolated at days 1, 3, 5, 7, 10, 14 and 21. Several markers were analyzed by RT-qPCR using SYBRgreen and specific primers or Taqman technology and gene-specific Assays-on-Demand (Applied Biosystems) (Table 1).
(§2) These features reached maximal expression between days 7 and 14 (FIG. 1). […] Neuroblastoma cytodifferentiation is an indication of this tumor becoming more benign, less proliferative. […] Moreover, upregulation of these differentiation-associated genes and CTAs both in vitro and in vivo (see Examples 2-4) validates the proposed in vitro model (doses used, time of exposure, etc) as a good model to evaluate neuroblastoma response to treatment with Cinacalcet.

[2] = tested on: SH-SY5Y CaSR/GFP; assay: RT-qPCR mRNA expression in SH-SY5Y CaSR/GFP neuroblastoma cells grown with Cinacalcet; type: cell-based, Homo sapiens; details: 1 μM Cinacalcet vs DMSO, up to 21 days
Procedure: as §1, §2

[3] = tested on: LA-N-1 xenografts; assay: RT-qPCR mRNA expression in xenografts; type: in vivo, human
Procedure: Total RNA was isolated from 8 xenografts exposed to Cinacalcet (C) and 8 from the control group (V). These were the last 8 tumors excised in each group, so that analyzed xenografts were those exposed to the longest period of treatment (V5-V12 and C4-C11). Two different mRNA expression analyses were conducted: Genome-wide expression analysis by microarrays (Example 3) and by RT-qPCR (Example 4).
Validation of microarrays data was conducted by means of RT-qPCR. This technique was performed using SYBRgreen and specific primers or Taqman technology and gene-specific Assays-on-Demand (Applied Biosystems) (Table 1). This technique was also used to analyze the expression of other CTAs (members of the MAGE family and CTCFL), genes associated with differentiation and calcium-signaling pathways in further detail. Upregulation of CTCFL (FIG. 5A), MAGE A2, MAGE A3 and SSX4/48 (FIG. 5B), NTRK3 (FIG. 5C), ADCY8, PRKCA and RYR2 (FIG. 5D) was detected mainly in the two specimens exposed for the longest time to Cinacalcet (C10-C11).

[4] = tested on: normal surrounding tissues; assay: Genome-wide expression analysis of murine genes in xenograft RNAs, Affymetrix Mouse Gene Array 2.1 ST; type: in vivo
Procedure: Genome-wide expression analyses were performed using Affymetrix Human and Mouse Gene Array 2.1 ST (Affymetrix, reference number 902136 for human gene array and 902120 for mouse gene array) as per manufacturer's protocol. Procedures to analyze results included: Quality control of the arrays (following this step, xenograft C6 was removed from further analyses); filtering and normalization; selection of differentially expressed genes; single comparison (treated versus control samples); list of differentially expressed genes ranked by significance; Volcano plots showing the most differentially expressed genes; heatmaps of the clustered expression profiles; and analysis of biological significance through enrichment analysis against the Gene Ontologies, KEGG (Kyoto Encyclopedia of Genes and Genomes) and Ingenuity pathways.
In order to evaluate whether upregulation of CTAs was a tumor-specific effect or it was induced in normal surrounding tissues as well, a genome-wide expression analysis by means of microarrays was conducted using a chip to detect murine genes differentially expressed in the same RNAs analyzed in the human array.

[5] = xenografts, RT-qPCR, mainly in C10-C11 (longest exposure), FIG. 5B
[6] = xenografts, RT-qPCR, mainly in C10-C11 (longest exposure), FIG. 5D
[7] = Mus musculus genes in xenograft RNAs, Cinacalcet vs vehicle, adjusted P 0.80678117

Question: C[C@@H](NCCCc1cccc(C(F)(F)F)c1)c1cccc2ccccc12 [Cinacalcet] was tested. Which “CTCFL mRNA fold increase” value [1] did it give?
Answer: Its value is “no expression”.

Question: And the “MAGEA2 mRNA fold increase” value [1]?
Answer: The value was 36.6 fold.

Question: And the “MAGEA3 mRNA fold increase” value [1]?
Answer: The value was 155.4 fold.

Question: And the “NFL mRNA fold increase” value [1]?
Answer: Its value is 7.2 fold.

Question: What about the “NTRK1 mRNA fold increase” value [1] of the same compound?
Answer: Its value is 3.6 fold.

Question: What about the “NTRK3 mRNA fold increase” value [1] of the same compound?
Answer: Its value is 2.6 fold.

Question: And the “S100-β mRNA fold increase” value [1]?
Answer: Its value is 72.3 fold.

Question: And the “SSX4/4B mRNA fold increase” value [1]?
Answer: Its value is 69 fold.

Question: And the “TUBB3 mRNA fold increase” value [1]?
Answer: The value was 2.8 fold.

Question: And the “GAGE-P1 mRNA fold increase” value ([1]; primer pair GAGE P1)?
Answer: The value was 4.1 fold.

Question: And the “GAGE-P2 mRNA fold increase” value ([1]; primer pair GAGE P2)?
Answer: The value was 5.7 fold.

Question: What about the “GAGE-P3 mRNA fold increase” value ([1]; primer pair GAGE P3) of the same compound?
Answer: Its value is 6.3 fold.

Question: What about the “CTCFL mRNA fold increase” value [2] of the same compound?
Answer: The value was “no expression”.

Question: And the “MAGEA2 mRNA fold increase” value [2]?
Answer: Its value is 2.4 fold.

Question: What about the “MAGEA3 mRNA fold increase” value [2] of the same compound?
Answer: Its value is 14.6 fold.

Question: And the “NFL mRNA fold increase” value [2]?
Answer: Its value is 2.3 fold.

Question: What about the “NTRK1 mRNA fold increase” value [2] of the same compound?
Answer: Its value is 2.9 fold.

Question: What about the “NTRK3 mRNA fold increase” value [2] of the same compound?
Answer: Its value is 4.7 fold.

Question: What about the “S100-β mRNA fold increase” value [2] of the same compound?
Answer: Its value is 2.2 fold.

Question: What about the “SSX4/4B mRNA fold increase” value [2] of the same compound?
Answer: The value was 3.45 fold.

Question: What about the “TUBB3 mRNA fold increase” value [2] of the same compound?
Answer: The value was 1.7 fold.

Question: What about the “GAGE-P1 mRNA fold increase” value ([2]; primer pair GAGE P1) of the same compound?
Answer: Its value is 1.4 fold.

Question: What about the “GAGE-P2 mRNA fold increase” value ([2]; primer pair GAGE P2) of the same compound?
Answer: The value was 7.9 fold.

Question: What about the “GAGE-P3 mRNA fold increase” value ([2]; primer pair GAGE P3) of the same compound?
Answer: The value was 2.5 fold.

Question: And the “Increase in relative mRNA expression of GAGE mRNA” value ([3]; xenograft specimen C11, long-term treatment, data not shown)?
Answer: The value was “up to 100 fold”.

Question: What about the “Relative mRNA expression of CTCFL” value ([3]; xenografts, RT-qPCR, mainly in C10-C11 (longest exposure), FIG. 5A) of the same compound?
Answer: The value was “Upregulation”.

Question: What about the “Relative mRNA expression of MAGE A2” value [3, 5] of the same compound?
Answer: Its value is “Upregulation”.

Question: What about the “Relative mRNA expression of MAGE A3” value [3, 5] of the same compound?
Answer: The value was “Upregulation”.

Question: And the “Relative mRNA expression of SSX4/48” value [3, 5]?
Answer: The value was “Upregulation”.

Question: What about the “Relative mRNA expression of NTRK3” value ([3]; xenografts, RT-qPCR, mainly in C10-C11 (longest exposure), FIG. 5C) of the same compound?
Answer: Its value is “Upregulation”.

Question: What about the “Relative mRNA expression of ADCY8” value [3, 6] of the same compound?
Answer: Its value is “Upregulation”.

Question: What about the “Relative mRNA expression of PRKCA” value [3, 6] of the same compound?
Answer: Its value is “Upregulation”.

Question: And the “Relative mRNA expression of RYR2” value [3, 6]?
Answer: The value was “Upregulation”.

Question: And the “Log fold change, murine probe 17395227 (Gm14399)” value ([4]; Mus musculus genes in xenograft RNAs, Cinacalcet vs vehicle, adjusted P 0.60678117)?
Answer: The value was 1.067.

Question: And the “Log fold change, murine probe 17262250 (Tgtp2//Tgtp1)” value ([4]; Mus musculus genes in xenograft RNAs, Cinacalcet vs vehicle, adjusted P 0.80676117)?
Answer: Its value is 1.108.

Question: What about the “Log fold change, murine probe 17302054 (Snora31)” value [4, 7] of the same compound?
Answer: The value was 1.105.

Question: What about the “Log fold change, murine probe 17352957 (Dsc1)” value [4, 7] of the same compound?
Answer: The value was 1.033.

Question: And the “Log fold change, murine probe 17380529 (Gm14419//Gm14391//Gm6710)” value [4, 7]?
Answer: Its value is 1.033.

Question: And the “Log fold change, murine probe 17386477 (Gm11084)” value [4, 7]?
Answer: The value was 1.567.

Question: And the “Log fold change, murine probe 17458439 (Gpnmb)” value [4, 7]?
Answer: Its value is 1.221.

Question: And the “Log fold change, murine probe 17483098 (Gdpd3)” value [4, 7]?
Answer: The value was 1.309.

Question: And the “Log fold change, murine probe 17503825 (Mmp2)” value [4, 7]?
Answer: Its value is 1.046.

Question: And the “Log fold change, murine probe 17546762 (LOC101055644//Mid1//MID1)” value [4, 7]?
Answer: Its value is 1.088.

Question: And the “Log fold change, murine probe 17546774 (Erdr1//Dock9)” value [4, 7]?
Answer: The value was 1.341.

Question: And the “Upregulation of CTAs in normal surrounding (murine) tissues” value ([4]; murine microarray, also when C9-C11 analyzed, no gene significant (adjusted P-value >0.05))?
Answer: Its value is “CTAs were not amongst the over-expressed genes”.

Reference: patent US20180207111A1, “IMMUNOTHERAPY FOR CASR-EXPRESSING CANCER (E.G. NEUROBLASTOMA)” (HOSPITAL SANT JOAN DE DEU, priority 2015, published 2018)
